Reference: publication PMC3949521 (Acta Crystallographica Section D: Biological Crystallography, 2014)

Target: T1, B. megaterium PBGD (Priestia megaterium, UniProt Q8GCA8)
T1 construct: gene hemC; His tag removed for crystals; gene encodes 310 residues; about 35 kDa; monomer; cofactor on Cys241; residues 42-62 disordered
Test: X-ray crystal structure, […] and […] Å
Type: binding
Conditions: covalent (thioether to Cys241), pH 6.5-6.8, partial occupancy

T1 sequence (Q8GCA8 entry or part of it): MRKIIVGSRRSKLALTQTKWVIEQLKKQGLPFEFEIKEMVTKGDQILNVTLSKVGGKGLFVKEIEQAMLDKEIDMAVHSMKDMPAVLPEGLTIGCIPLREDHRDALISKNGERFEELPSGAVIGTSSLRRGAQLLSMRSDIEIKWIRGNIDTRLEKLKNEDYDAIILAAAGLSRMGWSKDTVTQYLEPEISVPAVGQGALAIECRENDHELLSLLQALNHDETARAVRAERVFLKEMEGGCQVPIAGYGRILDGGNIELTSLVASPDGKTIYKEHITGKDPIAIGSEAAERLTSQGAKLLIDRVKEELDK

## N[C@@H](CSCc1[nH]c(Cc2[nH]cc(CCC(=O)O)c2CC(=O)O)c(CCC(=O)O)c1CC(=O)O)C(=O)O [dipyrromethane cofactor]
X-ray cannot tell dipyrromethane from dipyrromethene, PDB also 4mlq
  X-ray crystal structure, 1.46 and 1.60 Å: one of which corresponds to the fully reduced dipyrromethane

## N[C@@H](CSCc1[nH]c(CC2NC(=O)C(CCC(=O)O)=C2CC(=O)O)c(CCC(=O)O)c1CC(=O)O)C(=O)O (some centres unmarked) [dipyrromethanone]
Shared with reduced conformer, inactive oxidized form, PDB also 4mlv
  X-ray crystal structure, 1.46 and 1.60 Å: the 'oxidized' conformation of the cofactor is actually the partly reduced dipyrromethanone form
